Results from US6242601A, “Heterocyclic sulfamides” (Hoffman-La Roche Inc., priority 1999, dated 2001).

Columns and labels:
[1] = Pharmacokinetics of the endothelin receptor antagonists after oral gavage in rats; type: in vivo; conditions: rat, plasma, 5 mg/kg in DMSO, Wistar rats, bioassay; for AUC: read-out: Area under the plasma concentration time curve; for Cmax: read-out: Peak concentration in rat plasma
Method: IV. […] The test compounds were dissolved in DMSO at a concentration of 5 mg/mL and administered orally by gavage at a dose of 1 mL/kg body weight corresponding to 5 mg/kg body weight. Two rats were administered per test compound. Blood samples were collected from the retro-orbital sinus at 1 and 5 h post dose in one rat, and at 3 and 7 h post dose in the other rat. In addition a terminal 24 h blood sample was collected from both rats by heart puncture. Blood was collected on EDTA-NaF. Plasma was derived by centrifugation at 2000 g at +4° C. for 15 min. Plasma samples were assayed for active drug related material with a bioassay, based on the binding competition of tested compounds and ^125 I ET-1 on recombinant ETA receptors. Quantitation of plasma samples was by comparison to a calibration curve build up from control rat plasma spiked with known concentrations of the test compounds.

[2] = target: T1, recombinant human ETA receptors (Homo sapiens, UniProt P25101); test: Inhibition of endothelin binding on recombinant human ETA receptors expressed in CHO cells ([125I]ET-1, whole attached cells); parameters: expressed in transfected cells; host or cells: CHO cells; conditions: 35 pM [125I]ET-1, 2 h, 22° C.
T1 sequence (P25101 21-427): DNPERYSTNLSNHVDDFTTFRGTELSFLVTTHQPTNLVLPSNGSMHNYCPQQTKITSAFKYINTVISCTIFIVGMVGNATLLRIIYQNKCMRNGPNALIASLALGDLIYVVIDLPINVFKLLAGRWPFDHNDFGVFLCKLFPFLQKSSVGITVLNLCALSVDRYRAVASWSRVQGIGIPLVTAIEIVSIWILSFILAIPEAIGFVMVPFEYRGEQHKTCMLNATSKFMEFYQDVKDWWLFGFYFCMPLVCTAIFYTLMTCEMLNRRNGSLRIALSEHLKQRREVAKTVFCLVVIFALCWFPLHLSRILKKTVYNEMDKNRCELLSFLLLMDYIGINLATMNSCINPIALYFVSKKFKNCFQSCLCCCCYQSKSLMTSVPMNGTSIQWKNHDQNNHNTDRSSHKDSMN
Method: II. […] Cell culture. CHO cells, expressing recombinant human ETA receptor are grown in Minimal Essential Alpha Medium (Gibco Laboratories, Paisley, Scotland) supplemented with 0.1 μM methotrexate, 5% dialyzed fetal calf serum, 100 U/ml of penicillin and 100 μg/ml of streptomycin. Binding assays with whole attached cells are performed in 500 μl Dulbecco's Eagle medium (DMEM) containing 2 mg/ml bovine serum albumin and 25 mM Hepes. After incubation (2 h, 22° C.) in the presence of 35 pM [^125 I]ET-1 and increasing concentrations of various antagonists, the cells are extensively washed and finally solubilized in 1% (w/v) SDS, 0.5 M NaOH and 100 mM EDTA. Each assay is performed three times in triplicates and non specific binding is assessed in the presence of 100 nM unlabelled ET-1. Specific binding is defined as the difference between total binding and non specific binding. IC50 values are determined after logit/log transformation of the binding data.

isolated rat aorta rings = target: T2, isolated rat aorta rings (Rattus norvegicus, UniProt P26684); test: Inhibition of endothelin-induced contractions in isolated rat aorta rings; parameters: species or system adult Wistar-Kyoto rats; conditions: rat aorta rings without endothelium, 37° C.; endothelin-1 cumulative; from dose ratio; read-out: pA2 (converted)
T2 construct: Rings with a length of 5 mm were cut out from the thorax aorta of adult Wistar-Kyoto rats; from tissue; host or cells: thoracic aorta of adult Wistar-Kyoto rats, endothelium removed
T2 sequence (P26684 21-426): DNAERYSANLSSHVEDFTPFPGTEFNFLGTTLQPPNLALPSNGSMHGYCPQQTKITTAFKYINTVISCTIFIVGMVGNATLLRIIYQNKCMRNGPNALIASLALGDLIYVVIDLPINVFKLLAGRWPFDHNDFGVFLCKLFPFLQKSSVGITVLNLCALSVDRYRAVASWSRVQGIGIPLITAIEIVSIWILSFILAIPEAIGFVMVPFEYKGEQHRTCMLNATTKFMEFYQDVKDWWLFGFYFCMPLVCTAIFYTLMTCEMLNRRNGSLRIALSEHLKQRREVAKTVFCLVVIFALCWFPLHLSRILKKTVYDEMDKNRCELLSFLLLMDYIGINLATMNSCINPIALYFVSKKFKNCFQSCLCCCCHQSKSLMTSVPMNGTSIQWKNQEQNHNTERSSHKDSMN
Method: Rings with a length of 5 mm were cut out from the thorax aorta of adult Wistar-Kyoto rats. The endothelium was removed by lightly rubbing the internal surface. Each ring was immersed at 37° C. in 10 ml of Krebs-Henseleit solution in an isolated bath while gassing with 95% O2 and 5% CO2. The isometric stretching of the rings was measured. The rings were stretched to a pre-tension of 3 g.
The corresponding pA2 value, which is a measure of the activity of the test compound, was calculated using a computer programme according to the following equation from the "dose ratio" DR for each individual dosage-activity curve.
pA2 =log(DR-1)-log(antagonist-concentration)

Compound | AUC [1] [ng·h/mL] | Cmax [1] [ng/mL] | IC50 [2] [nM] | Kb (isolated rat aorta rings) [nM]
COc1ccccc1Oc1c(NS(=O)(=O)c2ccc(C)cn2)nc(-c2cccc(OCCO)c2)nc1OC [Example 7, 5-methyl-pyridine-2-sulfonic acid [2-[3-(2-hydroxy-ethoxy)-phenyl]-6-methoxy-5-(2-methoxy-phenoxy)-pyrimidin-4-yl]-amide] | ≥ 10000 | ≥ 1500 | ≤ 10 | ≤ 6.31
COc1ccccc1Oc1c(NS(=O)(=O)c2ccc(C(C)C)cn2)nc(-c2ccnc(C(=N)NO)c2)nc1OC [Example 55, N-hydroxy-4-[4-(5-isopropyl-pyridine-2-sulfonylamino)-6-methoxy-5-(2-methoxy-phenoxy)-pyrimidin-2-yl]-pyridine-2-carboxamidine] | – | – | ≤ 10 | ≤ 6.31
COc1ccccc1Oc1c(NS(=O)(=O)c2ccc(C(C)C)cn2)nc(-c2ccnc(CNC(C)=O)c2)nc1OC [Example 52, N-{4-[4-(5-isopropyl-pyridine-2-sulfonylamino)-6-methoxy-5-(2-methoxy-phenoxy)-pyrimidin-2-yl]-pyridin-2-ylmethyl}-acetamide] | ≥ 10000 | ≥ 1500 | – | ≤ 6.31
COc1ccccc1Oc1c(NS(=O)(=O)c2ccc(C)cn2)nc(-c2cccc(O)c2)nc1OC [Example 1, 5-methyl-pyridine-2-sulfonic acid [2-(3-hydroxy-phenyl)-6-methoxy-5-(2-methoxy-phenoxy)-pyrimidin-4-yl]-amide] | – | – | ≤ 10 | ≤ 6.31
COc1ccccc1Oc1c(NS(=O)(=O)c2ccc(C)cn2)nc(-c2ccnc(-c3noc(C)n3)c2)nc1OC [Example 35, 5-methyl-pyridine-2-sulfonic acid {6-methoxy-5-(2-methoxy-phenoxy)-2-[2-(5-methyl-[1,2,4]oxadiazol-3-yl)-pyridin-4-yl]-pyrimidin-4-yl}-amide] | ≥ 10000 | ≥ 1500 | – | ≤ 6.31
COc1ccccc1Oc1c(NS(=O)(=O)c2ccc(C)cn2)nc(-c2ccnc(C(=O)O)c2)nc1OC [Example 21, 4-[4-methoxy-5-(2-methoxy-phenoxy)-6-(5-methyl-pyridine-2-sulfonylamino)-pyrimidin-2-yl]-pyridine-2-carboxylic acid] | – | – | ≤ 10 | ≤ 6.31
CCOC(=O)c1cc(-c2nc(NS(=O)(=O)c3ccc(C)cn3)c(Oc3ccccc3OC)c(OC)n2)ccn1 [Example 23, 4-[4-methoxy-5-(2-methoxy-phenoxy)-6-(5-methyl-pyridine-2-sulfonylamino)-pyrimidin-2-yl]-pyridine-2-carboxylic acid ethyl ester] | – | – | ≤ 10 | ≤ 6.31
